The numbers were not newly measured in patent US20160082141A1, “CHITIN AND ALGINATE COMPOSITE FIBERS” (THE BOARD OF TRUSTEES OF THE UNIVERSITY OF ALABAMA, priority 2013, published 2016), which cites them from elsewhere.

The conditions of the series: Dubbs and Gupta 1998.

For the compound `Cc1c(C)c2c(c(C)c1O)CC[C@@](C)(CCC[C@H](C)CCC[C@H](C)CCCC(C)C)O2` [Vitamin E, α-tocopherol], the “Solubility in water, mass fraction” value is 20.9×10^−6 g vitamin E/g water and the “Solubility in water, mol fraction” value is 0.87×10^−6 mole vitamin E/mole water.
